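48-hour exposure; five concentrations; linearly interpolated endpoints. GI50 = concentration required for 50% inhibition of growth.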 Active and inactive are the calls of the source. Rule as the data show it: active = GI50 up to about 1.1 µM and inactive = higher.
How the values were obtained:
Test in all cases: inhibition of tumour cell growth, NCI panel, 48 h
SN12C = test system: SN12C
CCRF-CEM = test system: CCRF-CEM
SF-268 = test system: SF-268
TK-10 = test system: TK-10
RPMI-8226 = test system: RPMI-8226
SF-295 = test system: SF-295
NCI-H460 = test system: NCI-H460
RXF 393 = test system: RXF 393
M14 = test system: M14
NCI-H522 = test system: NCI-H522
OVCAR-8 = test system: OVCAR-8
KM12 = test system: KM12
HCC 2998 = test system: HCC 2998
NCI-H226 = test system: NCI-H226
SNB-75 = test system: SNB-75
SW-620 = test system: SW-620
EKVX = test system: EKVX

Measured: GI50

O=C(CSc1nnc(Cc2ccccc2)o1)Nc1ccccc1
inactive: SN12C > 100 µM | CCRF-CEM > 100 µM | SF-268 > 100 µM | TK-10 > 100 µM | RPMI-8226 > 100 µM | SF-295 > 100 µM | NCI-H460 > 100 µM | RXF 393 > 100 µM | M14 > 100 µM | NCI-H522 > 100 µM | OVCAR-8 > 100 µM | KM12 > 100 µM | HCC 2998 > 100 µM | NCI-H226 > 100 µM | SNB-75 > 100 µM

O=C1Cc2ccccc2CCc2ccccc21
inactive: SN12C > 100 µM | CCRF-CEM > 100 µM | SF-268 > 100 µM | TK-10 > 100 µM | RPMI-8226 82.4 µM | SW-620 > 100 µM | SF-295 83 µM | EKVX 79.6 µM | NCI-H460 > 100 µM | RXF 393 > 100 µM | M14 > 100 µM | NCI-H522 68.9 µM | OVCAR-8 > 100 µM | KM12 > 100 µM | HCC 2998 > 100 µM | NCI-H226 > 100 µM | SNB-75 81.8 µM

CC1=NN(c2ccccc2)C(=O)/C1=C\c1ccc([N+](=O)[O-])cc1
inactive: SN12C 32.1 µM | CCRF-CEM 20.7 µM | SF-268 38.6 µM | TK-10 48.8 µM | RPMI-8226 23.6 µM | SW-620 30.3 µM | SF-295 31.1 µM | EKVX 36.6 µM | NCI-H460 34 µM | RXF 393 19.5 µM | M14 30.8 µM | NCI-H522 21.8 µM | OVCAR-8 31.2 µM | KM12 26.4 µM | HCC 2998 25.6 µM | SNB-75 25.5 µM

C=C1CCC2(C(C)=O)COC1(C)O2 (stereo not given)
inactive: SN12C > 100 µM | CCRF-CEM > 100 µM | TK-10 > 100 µM | RPMI-8226 > 100 µM | SW-620 > 100 µM | SF-295 > 100 µM | EKVX > 100 µM | NCI-H460 > 100 µM | RXF 393 > 10 µM | M14 > 100 µM | NCI-H522 > 10 µM | OVCAR-8 > 100 µM | KM12 > 100 µM | NCI-H226 > 100 µM | SNB-75 > 100 µM

O=[N+]([O-])c1ccc(-c2ccc(C3=Nn4c(nnc4-c4ccc(Cl)cc4)SC3)o2)cc1
inactive: SN12C 97.9 µM | CCRF-CEM > 100 µM | SF-268 > 100 µM | TK-10 23.4 µM | RPMI-8226 > 100 µM | SW-620 > 100 µM | SF-295 26.5 µM | EKVX > 100 µM | NCI-H460 > 73.3 µM | M14 > 100 µM | NCI-H522 > 89.3 µM | OVCAR-8 > 92 µM | KM12 > 100 µM | HCC 2998 > 100 µM | NCI-H226 > 100 µM | SNB-75 25.4 µM

O=C1c2ccccc2C(=O)C12CCc1ccccc12
inactive: SN12C > 100 µM | CCRF-CEM > 100 µM | SF-268 > 100 µM | TK-10 > 100 µM | SW-620 > 100 µM | SF-295 > 100 µM | EKVX > 100 µM | NCI-H460 > 100 µM | RXF 393 > 100 µM | M14 > 100 µM | OVCAR-8 > 100 µM | HCC 2998 > 100 µM | SNB-75 40.3 µM

NC(=O)CCC(NC(=O)Cc1ccccc1)C(=O)O (stereo not given)
inactive: SN12C > 2470 µM | CCRF-CEM 2320 µM | SF-268 1420 µM | TK-10 2120 µM | RPMI-8226 1030 µM | SW-620 > 2470 µM | SF-295 1740 µM | EKVX > 2470 µM | RXF 393 531 µM | M14 > 2470 µM | NCI-H522 841 µM | OVCAR-8 > 2470 µM | KM12 > 2470 µM | HCC 2998 > 2470 µM | SNB-75 724 µM

C/C(CCc1ccccc1)=N\NC(N)=S
inactive: SN12C > 100 µM | CCRF-CEM 75.5 µM | SF-268 > 100 µM | TK-10 > 100 µM | RPMI-8226 27.3 µM | SW-620 > 100 µM | SF-295 > 100 µM | EKVX 72.4 µM | NCI-H460 > 100 µM | RXF 393 42.3 µM | M14 > 100 µM | OVCAR-8 > 100 µM | KM12 > 100 µM | HCC 2998 > 100 µM | NCI-H226 > 100 µM | SNB-75 76.4 µM

CCOC(=O)C1=C(O)C(=O)c2c(OC)ccc(OC)c2C1=O
inactive: SN12C > 100 µM | CCRF-CEM > 100 µM | SF-268 > 100 µM | TK-10 > 100 µM | RPMI-8226 > 100 µM | SW-620 > 100 µM | SF-295 > 100 µM | EKVX > 100 µM | NCI-H460 > 100 µM | RXF 393 > 100 µM | M14 > 100 µM | NCI-H522 > 100 µM | OVCAR-8 > 100 µM | KM12 > 100 µM | HCC 2998 > 100 µM | NCI-H226 > 100 µM | SNB-75 82.6 µM

Cn1cc(NC(=O)c2cc(NC(=O)CCCCCCCCCC(=O)Nc3cc(C(=O)Nc4cc(C(=O)NCCC(=N)N)n(C)c4)n(C)c3)cn2C)cc1C(=O)NCCC(=N)N
inactive: SN12C 32.2 µM | CCRF-CEM 22.6 µM | SF-268 21.8 µM | TK-10 22.7 µM | RPMI-8226 8.26 µM | SW-620 32 µM | SF-295 22.1 µM | EKVX 28.6 µM | NCI-H460 23.9 µM | RXF 393 32.1 µM | M14 23.1 µM | NCI-H522 11 µM | OVCAR-8 25.7 µM | KM12 13.1 µM | NCI-H226 > 100 µM | SNB-75 27.9 µM

COc1c(CC(C)=O)c2ccccc2n1C(C)=O
inactive: SN12C > 100 µM | CCRF-CEM > 100 µM | RPMI-8226 > 100 µM | SW-620 > 100 µM | SF-295 > 100 µM | EKVX > 100 µM | NCI-H460 > 100 µM | RXF 393 > 100 µM | M14 > 100 µM | OVCAR-8 > 100 µM | KM12 > 100 µM | HCC 2998 > 100 µM | SNB-75 > 100 µM

C/C(CC(=O)Nc1cccc(Cl)c1C)=N\NC(N)=S
inactive: CCRF-CEM > 100 µM | SF-268 > 100 µM | TK-10 > 100 µM | RPMI-8226 > 100 µM | SW-620 > 100 µM | SF-295 > 100 µM | EKVX > 100 µM | NCI-H460 > 100 µM | RXF 393 > 100 µM | M14 > 100 µM | NCI-H522 39.6 µM | OVCAR-8 > 100 µM | KM12 > 100 µM | HCC 2998 > 100 µM | NCI-H226 > 100 µM | SNB-75 > 100 µM

C#CCSc1nc(N)c2ncn(C3OC(CO)C(O)C3O)c2n1 (stereo not given)
inactive: SN12C > 100 µM | CCRF-CEM > 100 µM | SF-268 > 100 µM | TK-10 > 100 µM | RPMI-8226 > 100 µM | SW-620 > 100 µM | SF-295 > 100 µM | EKVX > 100 µM | NCI-H460 > 100 µM | RXF 393 > 100 µM | NCI-H522 > 100 µM | OVCAR-8 > 100 µM | KM12 > 100 µM | HCC 2998 > 100 µM

CN(CCO)c1nc(N)cc(=O)[nH]1
inactive: SN12C > 100 µM | CCRF-CEM > 100 µM | SF-268 > 100 µM | TK-10 > 100 µM | RPMI-8226 > 100 µM | SW-620 > 100 µM | SF-295 > 100 µM | EKVX > 100 µM | NCI-H460 > 100 µM | RXF 393 > 100 µM | M14 > 100 µM | NCI-H522 > 100 µM | OVCAR-8 > 100 µM | KM12 > 100 µM | HCC 2998 > 100 µM | NCI-H226 > 100 µM | SNB-75 38.7 µM

NNC(=O)CCC(=O)Nc1cc(Cl)c(Cl)cc1Cl
inactive: SN12C > 100 µM | CCRF-CEM > 100 µM | SF-268 > 100 µM | TK-10 > 100 µM | RPMI-8226 > 100 µM | SW-620 > 100 µM | SF-295 > 100 µM | NCI-H460 > 100 µM | RXF 393 > 100 µM | M14 > 100 µM | NCI-H522 > 100 µM | OVCAR-8 > 100 µM | KM12 > 100 µM | HCC 2998 > 100 µM | NCI-H226 > 100 µM | SNB-75 95.1 µM

Cc1ccc(NC(=O)CC2C(=O)Nc3ccccc3S2(=O)=O)c(C)c1 (stereo not given)
inactive: SN12C 18.6 µM | CCRF-CEM 16.4 µM | SF-268 20.3 µM | TK-10 25.9 µM | RPMI-8226 15.2 µM | SW-620 5.21 µM | SF-295 25.5 µM | EKVX 42.5 µM | NCI-H460 16 µM | RXF 393 17 µM | M14 11.2 µM | NCI-H522 10.9 µM | OVCAR-8 18.2 µM | HCC 2998 13.4 µM | NCI-H226 17 µM | SNB-75 15.2 µM

CC1C[C@H](OC(N)=O)C(C)CC1=O (stereo not given in full)
inactive: SN12C > 100 µM | CCRF-CEM > 100 µM | SF-268 > 100 µM | TK-10 > 100 µM | RPMI-8226 > 100 µM | SW-620 > 100 µM | SF-295 > 100 µM | EKVX > 100 µM | NCI-H460 > 100 µM | RXF 393 > 100 µM | M14 > 100 µM | OVCAR-8 > 100 µM | KM12 > 100 µM | HCC 2998 > 100 µM | SNB-75 > 100 µM

O=C1C(c2ccc(Cl)cc2)=[N+]([O-])c2ccccc21
inactive: SN12C 18.1 µM | CCRF-CEM 4.36 µM | SF-268 15.4 µM | TK-10 16.3 µM | RPMI-8226 14.9 µM | SW-620 39.7 µM | SF-295 12.1 µM | EKVX 15.3 µM | NCI-H460 18.8 µM | RXF 393 11 µM | M14 14.2 µM | NCI-H522 10 µM | OVCAR-8 10.7 µM | KM12 15.2 µM | HCC 2998 > 100 µM | NCI-H226 19.1 µM | SNB-75 21.4 µM
